Laboratory results published in patent publication US7572463B2, “Oral dosage forms” (Gruenenthal GmbH, priority 1999, dated 2009).
Structures can show the parent of a compound that is named as a salt.

What was measured:
[1] = Water solubility of the active-substance salts (saturated solution in deionised water, HPLC); assay type: physicochemical; details: 25° C., 20 hours stirring
Procedure: The water solubility of the active-substance salts was determined as follows:
The quantity of the relevant active-substance salts required for this may optionally be determined by means of preliminary experiments.
After the un-dissolved active-substance salt had been allowed to settle, the clear supernatant was removed by pipette and centrifuged at rate of at least 3000 rpm for five minutes.

[2] = In-vitro release profile, European Pharmacopoeia basket apparatus, synthetic gastric then intestinal juices, HPLC; assay type: physicochemical
Procedure: The release profiles of the oral dosage forms according to the invention were determined as follows:
The dosage forms according to the invention were tested in the European Pharmacopoeia basket apparatus at a temperature of the released medium of 37±0.5° C., and at a rate of 50 rpm for 2 hours in 600 ml synthetic gastric juices without enzymes at pH 1.2. Following this, the dosage form was tested for a further 8 hours in 900 ml synthetic intestinal juices without enzymes at pH 7.2. The quantity of active substance released at a given time was determined in each case by means of HPLC. The values shown are average values based in each case on 3 samples. The invention will be explained below with reference to examples.
The release profile was determined according to the method indicated above using the basket apparatus and this is reproduced in the following Table 1 and in FIG. 1 (as a percentage of the total dose, calculated as tramadol hydrochloride). By way of deviation from the conditions described above, the coated pellets were tested for 18 hours in synthetic intestinal juices without enzymes at pH 7.2.
The release profile was determined according to the method indicated above using the basket apparatus and this is reproduced in the following Table 2 and in FIG. 2 (as a percentage of the total dose, calculated as tramadol hydrochloride). By way of deviation from the conditions described above, the coated pellets were tested for 10 hours in synthetic intestinal juices without enzymes at pH 7.2.

[3] = salt in the ethyl cellulose coated pellets of Example 2
[4] = salt in the shellac coated pellets of Example 3, tests in synthetic intestinal juices

**Q.** With `COc1cccc(C2(O)CCCCC2CN(C)C)c1.O=C1NS(=O)(=O)c2ccccc21` (stereo not drawn) [tramadolsaccharinate] as the compound, how does the water solubility [1] read?
**A.** Its water solubility is “approx. 20 mg/ml”.

**Q.** With `COc1cccc(C2(O)CCCCC2CN(C)C)c1` (stereo not drawn) [tramadol hydrochloride] as the compound, how does the solubility at 20 h ([1]; thermodynamic from solid) read?
**A.** The solubility at 20 h was over 300 mg/mL.

**Q.** And the “release of the active substance tramadol from the salt (in words)” value [2, 3]?
**A.** The value was “released very rapidly”.

**Q.** What about the “release of the active substance tramadol from the salt (in words)” value [2, 4] of the same compound?
**A.** The value was “released very rapidly”.

**Q.** Which “period over which tramadol is released in a retarded manner from the salt” value [2, 3] does the source give for `COc1cccc(C2(O)CCCCC2CN(C)C)c1.O=C(O)Cc1ccccc1Nc1c(Cl)cccc1Cl` (stereo not drawn) [[1e-(m-methoxyphenyl)-2e-dimethylaminomethyl-cyclohexane-1(a)-ol]-[2-(2′,6′-dichloranilino)-phenylacetate]] here?
**A.** The value was 10 h.

**Q.** What about the “period over which tramadol is released in a retarded manner from the salt” value [2, 4] of the same compound?
**A.** Its value is 8 h.
